Measured values as given in patent US6500813B1, “Ophthalmic composition containing active vitamin D” (priority 1995, dated 2002).

Assays:
[1] = system: lens capsule, aqueous humor and intraocular lens; assay: Test Example 2: lens removal by ultrasonic emulsification and aspiration with intraocular lens transplantation in rabbits, slit lamp observation of turbidity; type: in vivo, Japan white house rabbits; details: for fibrin deposition in the anterior chamber: versus sesame oil control (animal C)
Description: In this test, three Japan white house rabbits each weighing 2 kg were used. After anesthetizing each animal by intramuscularly injecting an analgesic-anesthetic at the femoral regions thereof and by simultaneously dropping a local anesthetic in the eyes, the sclerocornea of each animal was dissected over a length of 3.5 mm, followed by excising a circular piece of the arterior capsule at a diameter of about 5 mm from the lens capsule under perfusion of the ophthalmic buffer solution BSS, removal of the lens nuclei and the cortex by the ultrasonic emulsification and aspiration technique, swelling the lens capsule by injecting a viscoelastic substance, then widening the incised port of the sclerocornea to about 7 mm and transplantation, into the lens capsule, of a poly(methyl methacrylate) intraocular lens provided with an optical part having a diameter of 6 mm. After the removal of the viscoelastic substance under vacuum suction, the incised wound of the sclerocornea was sutured with three stitches using a 9-0 nylon suture to thus complete the operation. After the completion of the operation, an eye drop and an ointment containing an antibiotic agent were administered to the conjunctiva. The right eyes of these three animals were subjected to the ultrasonic emulsification and aspiration technique and the transplantation of an intraocular lens.
One (A) out of these three animals was treated with a calcitriol solution in a rate of 1 to 2 drops/dose/day. The calcitriol solution used was prepared by dissolving and diluting calcitriol (1α,25-dihydroxy vitamin D) in ethanol and then further diluting (1:100) the resulting dilute solution, to a calcitriol concentration of 0.5 μg/ml, with an ophthalmic oil base consisting of purified sesame oil. One (B) out of the three animals was treated by orally administering the calcitriol solution in a rate of 1 ml/dose/day using a dropping pipette. The remaining one (C) out of the three animals was treated by dropping ophthalmic purified sesame oil free of any calcitriol in the right eye in a rate of 1 to 2 drops/dose/day. After the mydriasis at 1, 4, 7, 14 and 28 days from the operation, the lens capsule, aqueous humor and intraocular lens for each animal were inspected for the turbidity through the observation under a slit lamp microscope.

[2] = system: laser-irradiated cornea (corneal epithelial cells); assay: Test Example 1: excimer laser (PTK) corneal incision in rabbits, slit lamp and light microscope observation; type: in vivo, Japan white rabbits
Experimental: In this test, 6 Japan white rabbits each weighing 2 kg were used. After anesthetizing each animal by intramuscularly injecting an analgesic-anesthetic at the femoral regions thereof and by simultaneously dropping local anesthetic in the eyes, a laser beam was focused on the corneal center of the right eye using an excimer laser oscillator (available from Summit Technology Co. U.S.). The laser beam irradiation was carried out according to the surface-incision mode (PTK), i.e., at an energy density of 165 mj/cm^2, a rate of incision to a depth of 0.25 μm/pulse, an incised surface diameter of 4.5 mm and a pulse number of 300.
After the laser beam irradiation, an eye drop and an ointment containing an antibiotic agent were administered to the eye. Three (Group A) out of these six animals were treated by dropping, in the right eye, an active vitamin D-containing solution (1 α-monohydroxy vitamin D: 0.01 μg/drop or 0.5 μg/ml; an alpha calcidol solution) in a rate of one drop (0.02 ml)/dose/day, starting from 24 hours after the laser beam irradiation. On the other hand, the remaining three (Group B) out of these six animals constituted a control group and were treated in the same manner by dropping, in the right eye, an ophthalmic buffer solution BSS at a rate of one drop/dose/day.
After 4, 7 and 12 days from the laser beam irradiation, the right eyes of animals in Group A and Group B (one animal each) were observed under a slit lamp microscope, followed by slaughtering one animal in each Group and then enucleation of the eyeballs. The cornea was removed from the sclerocornea of each eyeball, followed by fixing through immersion in a Carnoa's solution for 4 hours, dehydration in dry ethanol, paraffin-embedded to form a corneal slice with a thickness of 4 μm, removing paraffin by xylol, carrying out the hematoxylin-eosin staining and/or PAS staining and observation of the corneal slice under a light microscope.

laser-irradiated cornea = assay: Test Example 3: corneal turbidity rating after excimer laser (PTK) irradiation in rabbits; type: in vivo, Japan white rabbits; details: 10^−7% solution, 20 μl/dose, 3 times/day over 14 days
Experimental: In this test, 8 Japan white rabbits each weighing 2 kg were used. A laser beam was focused on the corneal center of the right eye of each animal using an excimer laser oscillator (available from Summit Technology Co. U.S.) under anesthesia. The laser beam irradiation was carried out according to the surface-incision mode (PTK), i.e., at an energy density of 165 mj/cm^2, a rate of incision to a depth of 0.25 μm/pulse, a diameter of the incised circular area of 4.5 mm and an irradiated pulse number of 300.
These 8 test animals which had been irradiated with the laser beam were, at random, divided into two groups each comprising 4 animals, one of which constituted a drug-administered group and the other of which constituted a control group. […]
After 24 hours from the laser irradiation, the drug-administered group and the control-group were treated by dropping, in the right eye, a 10^−7% active vitamin D-containing solution [22-oxa-1β,25-dihydroxy vitamin D3: OCT (available from Chugai Pharmaceutical Co., Ltd.)] and the OCT solvent base, respectively, at 20 μl/dose and 3 times/day over 14 days. After 7 and 15 days from the irradiation, the extent of the turbidity of each cornea was evaluated on the basis of the findings for the 8 animals observed under a slit lamp microscope. […]

[3] = animal A, eye drop, after 7 days from the operation

C=C1/C(=C\C=C2/CCC[C@]3(C)[C@@H]([C@H](C)CCCC(C)(C)O)CC[C@@H]23)C[C@@H](O)C[C@@H]1O [calcitriol, 1α,25-dihydroxy vitamin D]
side effect (bleeding, fibrin-deposition, corneal haze/opacity, intraocular inflammation) ([1]; Test Example 2, eye drop or oral): not observed any side effect | transparency, eye drop (animal A) compared with oral (animal B) ([1]; after 28 days from the operation): better than that observed for the animal B | posterior synechia ([1]; animal A, eye drop): did not cause any posterior synechia | fibrin deposition in the anterior chamber ([1]; animal A, eye drop 0.5 μg/ml in sesame oil, 1 to 2 drops/dose/day): very low as compared with that observed for the animal C | transparency of the anterior capsule [1, 3]: maintained desired transparency | wrinkling and opacity of the anterior capsule [1, 3]: only slight wrinkling of the anterior capsule and opacity of the periphery thereof | opacity and wrinkling of the anterior capsule ([1]; animal A, eye drop, after 28 days from the operation): slight opacity and wrinkling of the anterior capsule | posterior synechia ([1]; animal B, oral): did not cause any posterior synechia | fibrin deposition in the anterior chamber ([1]; animal B, oral 1 ml/dose/day of 0.5 μg/ml solution): very low as compared with that observed for the animal C | opacity and wrinkling of the anterior capsule ([1]; animal B, oral, after 28 days from the operation): slight opacity and wrinkling of the anterior capsule

C=C1/C(=C\C=C2/CCC[C@]3(C)[C@@H]([C@H](C)CCCC(C)C)CC[C@@H]23)C[C@@H](O)C[C@@H]1O [alpha calcidol, 1α-monohydroxy vitamin D]
opacity of the laser-irradiated site under the slit lamp microscope ([2]; Group A, right eye, eye drop 0.01 μg/drop (0.5 μg/ml), one drop/dose/day from 24 hours after irradiation, observed after 4, 7 and 12 days, versus BSS control (Group B)): quite slight opacity at the peripheral edge of the laser-irradiated site | piling up growth of the corneal epithelial cells, sliced cornea under a light microscope ([2]; Group A, right eye, eye drop 0.01 μg/drop, one drop/dose/day, control Group B ran up to 10 layers): not observed such tendency as piling up growth | side effect (bleeding, fibrin-deposition, corneal haze/opacity, intraocular inflammation) ([2]; Test Example 1, eye drop): not observed any side effect

C=C1/C(=C\C=C2/CCC[C@]3(C)[C@@H]([C@H](C)OCCC(C)(C)O)CC[C@@H]23)C[C@@H](O)C[C@@H]1O [OCT, 22-oxa-1β,25-dihydroxy vitamin D3]
degree of turbidity relative to that observed for the control group (laser-irradiated cornea): about ½ | degree of corneal turbidity, rating 0 (no turbidity) to 4 (complete opacification), average of four animals (laser-irradiated cornea; right eye, evaluated after 7 and 15 days, control group 3.5): 2.0
